One block for each compound: values may come before it. Activity calls are given as the source filed them.
Tests used:
[1] = target: T1, Short transient receptor potential channel 4 (Mus musculus, UniProt Q9QUQ5); experiment: potentiation of DAMGO-evoked TRPC4 calcium signal – cell-based, HEK293 TRPC4/mu-opioid, Fluo-4 calcium, EC20 DAMGO, dose response (AID 434941); assay type: functional
T1 sequence (Q9QUQ5 whole entry): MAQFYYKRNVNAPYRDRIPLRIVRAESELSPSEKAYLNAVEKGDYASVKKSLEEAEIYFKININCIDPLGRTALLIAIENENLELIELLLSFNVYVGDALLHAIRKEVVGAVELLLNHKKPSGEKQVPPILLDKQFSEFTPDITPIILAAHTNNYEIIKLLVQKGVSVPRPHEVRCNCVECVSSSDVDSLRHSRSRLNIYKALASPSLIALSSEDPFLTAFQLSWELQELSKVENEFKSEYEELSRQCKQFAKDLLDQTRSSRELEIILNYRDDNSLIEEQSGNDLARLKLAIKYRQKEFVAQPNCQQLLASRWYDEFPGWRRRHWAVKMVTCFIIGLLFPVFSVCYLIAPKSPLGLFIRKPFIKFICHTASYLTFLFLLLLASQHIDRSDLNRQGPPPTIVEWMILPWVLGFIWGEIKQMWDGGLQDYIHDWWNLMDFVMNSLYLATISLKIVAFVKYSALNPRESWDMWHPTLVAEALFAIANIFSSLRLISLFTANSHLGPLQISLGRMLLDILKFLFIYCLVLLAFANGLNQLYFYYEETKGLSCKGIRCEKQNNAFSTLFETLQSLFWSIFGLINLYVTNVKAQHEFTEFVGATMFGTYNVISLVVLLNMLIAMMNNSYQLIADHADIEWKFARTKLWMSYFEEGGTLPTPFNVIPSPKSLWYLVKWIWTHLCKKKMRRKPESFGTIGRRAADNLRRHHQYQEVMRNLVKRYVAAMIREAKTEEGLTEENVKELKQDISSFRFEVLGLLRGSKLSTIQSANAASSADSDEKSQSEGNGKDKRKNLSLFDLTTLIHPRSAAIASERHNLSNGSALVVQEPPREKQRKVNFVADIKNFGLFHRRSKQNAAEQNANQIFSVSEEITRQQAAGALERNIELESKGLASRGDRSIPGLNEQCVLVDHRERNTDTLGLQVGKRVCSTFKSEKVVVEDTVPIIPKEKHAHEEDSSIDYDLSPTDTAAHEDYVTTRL

[2] = target: T2, Mannose-6-phosphate isomerase (Homo sapiens, UniProt P34949); experiment: phosphomannose isomerase inhibition – biochemical, fluorescence intensity, confirmation (AID 1535)
T2 sequence (P34949 whole entry): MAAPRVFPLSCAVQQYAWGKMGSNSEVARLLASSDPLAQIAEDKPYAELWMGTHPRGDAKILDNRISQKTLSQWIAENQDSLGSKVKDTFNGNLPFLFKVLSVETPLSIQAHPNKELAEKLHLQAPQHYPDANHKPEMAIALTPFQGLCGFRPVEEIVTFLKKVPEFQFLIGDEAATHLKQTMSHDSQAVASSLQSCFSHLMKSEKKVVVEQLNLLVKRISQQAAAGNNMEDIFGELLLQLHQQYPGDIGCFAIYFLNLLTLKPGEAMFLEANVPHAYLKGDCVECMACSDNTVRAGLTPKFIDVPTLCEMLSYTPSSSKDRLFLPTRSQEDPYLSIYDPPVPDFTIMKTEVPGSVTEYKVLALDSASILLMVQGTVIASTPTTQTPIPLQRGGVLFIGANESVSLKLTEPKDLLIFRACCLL

[3] = target: Alkaline phosphatase, placental type (Homo sapiens, UniProt P05187); experiment: human placental alkaline phosphatase inhibition – biochemical, luminescence, confirmation (AID 1512); assay type: functional
[4] = target: T2, Mannose-6-phosphate isomerase; experiment: Confirmation of compounds inhibiting phosphomannose isomerase (PMI) via a fluorescence intensity assay using a high concentration of mannose 6-phosphate. [Related pubchem assays (depositor defined):AID1209, AID1220, AID1545, AID1553, AID1620]
[5] = target: Envelope glycoprotein gp160 (Human immunodeficiency virus 1, UniProt Q6QLK5); experiment: cell-free HIV fusion peptide-binding blockers – biochemical, uHTS, fluorescence dequenching, […] (AID 1986)
[6] = target: T1, Short transient receptor potential channel 4; experiment: block of DAMGO-driven TRPC4 calcium entry – cell-based, HEK293 TRPC4/mu-opioid, Fluo-4 calcium, dose response (AID 434942); assay type: functional;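 note: potency of inhibitors blocking the TRPC4 calcium response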
[7] = target: Type-1 angiotensin II receptor (Homo sapiens, UniProt P30556); experiment: agonist activity at AGTR1 – cell-based, uHTS hits, selectivity assay for APJ receptor agonist project, dose response (AID 488865); assay type: functional;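 note: beta-arrestin recruitment to AT1 measured by enzyme fragment complementation luminescence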
[8] = target: T3, Dual specificity protein phosphatase 6 (Rattus norvegicus, UniProt Q64346); assay type: functional;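 note: confirmatory in vitro dose-response testing of MKP-3 inhibition; recombinant His-tagged MKP-3 made in E. coli BL21 with OMFP substrate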
T3 sequence (Q64346 whole entry): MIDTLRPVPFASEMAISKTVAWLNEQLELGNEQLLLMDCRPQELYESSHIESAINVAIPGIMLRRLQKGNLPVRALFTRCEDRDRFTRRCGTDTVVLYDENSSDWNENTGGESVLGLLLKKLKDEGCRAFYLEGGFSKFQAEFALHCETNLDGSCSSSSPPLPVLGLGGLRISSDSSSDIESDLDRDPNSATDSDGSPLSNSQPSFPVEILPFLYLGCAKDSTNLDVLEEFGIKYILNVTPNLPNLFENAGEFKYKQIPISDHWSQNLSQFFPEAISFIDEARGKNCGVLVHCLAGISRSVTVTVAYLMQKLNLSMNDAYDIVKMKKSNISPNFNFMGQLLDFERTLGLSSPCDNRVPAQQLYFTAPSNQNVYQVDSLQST

[9] = target: T4, Tyrosine-protein phosphatase non-receptor type 7 (Homo sapiens, UniProt P35236); experiment: redox-active compounds inhibiting HePTP phosphatase – biochemical, fluorescence, mechanism study (AID 2068); assay type: functional
T4 sequence (P35236 whole entry): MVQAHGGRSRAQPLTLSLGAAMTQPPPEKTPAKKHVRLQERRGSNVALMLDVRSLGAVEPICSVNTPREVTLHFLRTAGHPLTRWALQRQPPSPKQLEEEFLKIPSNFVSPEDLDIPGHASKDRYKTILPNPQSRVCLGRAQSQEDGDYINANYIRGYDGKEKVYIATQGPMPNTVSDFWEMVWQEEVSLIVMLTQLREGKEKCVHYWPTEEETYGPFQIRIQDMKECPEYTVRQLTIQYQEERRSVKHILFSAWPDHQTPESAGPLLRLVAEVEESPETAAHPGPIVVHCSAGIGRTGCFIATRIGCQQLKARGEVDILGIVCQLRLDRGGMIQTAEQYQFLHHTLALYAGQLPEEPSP

[10] = target: G-protein coupled receptor 55 (Homo sapiens, UniProt Q9Y2T6); experiment: SAR analysis of selective Agonists of GPR55 using an Image-Based Assay - Set 2. [Related pubchem assays (depositor defined):AID1961, AID1965]; assay type: functional
[11] = target: T5, Cannabinoid receptor 2 (Homo sapiens, UniProt P34972); experiment: SAR analysis of antagonists of the Cannabinoid Receptor 2 using an Image-Based Assay - Set 2. [Related pubchem assays (depositor defined):AID1961, AID1965]; assay type: functional
[12] = target: T6, G-protein coupled receptor 35 (Homo sapiens, UniProt Q9HC97); experiment: SAR analysis of Agonists of the GPR35 Receptor using an Image-Based Assay - Set 3. [Related pubchem assays (depositor defined):AID1961, AID1965]; assay type: functional
[13] = target: T7, Cannabinoid receptor 1 (Homo sapiens, UniProt P21554); experiment: SAR analysis of agonists of the Cannabinoid Receptor 1 using an Image-Based Assay - Set 3. [Related pubchem assays (depositor defined):AID1961, AID1965]; assay type: functional
[14] = target: T7, Cannabinoid receptor 1; experiment: SAR analysis of antagonists of the Cannabinoid Receptor 1 using an Image-Based Assay - Set 3. [Related pubchem assays (depositor defined):AID1961, AID1965]; assay type: functional
[15] = target: T6, G-protein coupled receptor 35; experiment: SAR analysis of Antagonists of the GPR35 Receptor using an Image-Based Assay - Set 4. [Related pubchem assays (depositor defined):[…]]; assay type: functional
[16] = target: T5, Cannabinoid receptor 2; experiment: SAR analysis of agonists of the Cannabinoid Receptor 2 using an Image-Based Assay - Set 2. [Related pubchem assays (depositor defined):AID1961, AID1965]; assay type: functional
[17] = target: T8, Kappa-type opioid receptor (Homo sapiens, UniProt P41145); experiment: SAR analysis of small molecule antagonists of the kappa opioid receptor via a luminescent beta-arrestin assay - Set 3. [Related pubchem assays (depositor defined):AID1777, AID1778, AID1785, AID1786, AID1966, AID2133, AID2136, AID2285, AID2495]; assay type: functional
[18] = target: Delta-type opioid receptor (Homo sapiens, UniProt P41143); experiment: SAR Analysis of Antagonists of the DOR Receptor using an Image-Based Assay - Set 3. [Related pubchem assays (depositor defined):AID1777, AID1785]; assay type: functional;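 note: U2OS cells expressing DOR1 and beta-arrestin GFP stimulated with 100 nM SNC80; imaging of GFP-tagged beta-arrestin moving into spots after receptor activation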
[19] = target: T8, Kappa-type opioid receptor; experiment: SAR analysis of small molecule antagonists of the kappa opioid receptor via a luminescent beta-arrestin assay - Set 6. [Related pubchem assays (depositor defined):AID1777, AID1778, AID1785, AID1786, AID1966, AID2133, AID2136, AID2285]; assay type: functional
[20] = target: Mu-type opioid receptor (Homo sapiens, UniProt P35372); experiment: SAR Analysis of Antagonists of the MOR Receptor using an Image-Based Assay - Set 3. [Related pubchem assays (depositor defined):AID1777, AID1785, AID1786, AID1966, AID2133, AID2136, AID2284, AID2285, AID2420]; assay type: functional
[21] = target: T8, Kappa-type opioid receptor; experiment: SAR analysis of Antagonists of the Kappa Opioid Receptor (KOR) using an Image-Based Assay - Set 4. [Related pubchem assays (depositor defined):AID1777, AID1785]; assay type: functional
[22] = target: DNA damage-inducible transcript 3 protein (Mus musculus, UniProt P35639); assay type: functional, Cricetulus griseus
[23] = target: T9, Coagulation factor XII (Homo sapiens, UniProt P00748); experiment: Factor XIIa Dose Response Confirmation from Single Well HTS. [Related pubchem assays (depositor defined):AID701]; assay type: functional
T9 sequence (P00748 whole entry): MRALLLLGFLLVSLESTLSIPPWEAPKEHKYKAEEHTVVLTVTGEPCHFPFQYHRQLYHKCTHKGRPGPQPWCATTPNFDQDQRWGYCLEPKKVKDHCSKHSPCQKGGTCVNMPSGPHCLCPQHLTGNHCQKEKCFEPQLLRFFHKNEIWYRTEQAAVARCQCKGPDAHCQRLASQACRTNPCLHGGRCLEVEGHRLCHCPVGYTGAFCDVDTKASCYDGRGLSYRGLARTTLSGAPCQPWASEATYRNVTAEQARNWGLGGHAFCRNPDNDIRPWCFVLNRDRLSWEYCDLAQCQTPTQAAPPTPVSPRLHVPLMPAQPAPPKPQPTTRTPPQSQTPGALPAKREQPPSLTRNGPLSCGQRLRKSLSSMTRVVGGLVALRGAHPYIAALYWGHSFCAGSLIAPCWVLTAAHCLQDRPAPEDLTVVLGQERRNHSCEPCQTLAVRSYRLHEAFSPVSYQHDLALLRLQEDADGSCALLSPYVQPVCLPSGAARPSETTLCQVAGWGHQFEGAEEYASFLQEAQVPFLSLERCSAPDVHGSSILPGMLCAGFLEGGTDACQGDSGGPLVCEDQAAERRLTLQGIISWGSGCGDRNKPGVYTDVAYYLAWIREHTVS

T8 sequence (P41145 whole entry): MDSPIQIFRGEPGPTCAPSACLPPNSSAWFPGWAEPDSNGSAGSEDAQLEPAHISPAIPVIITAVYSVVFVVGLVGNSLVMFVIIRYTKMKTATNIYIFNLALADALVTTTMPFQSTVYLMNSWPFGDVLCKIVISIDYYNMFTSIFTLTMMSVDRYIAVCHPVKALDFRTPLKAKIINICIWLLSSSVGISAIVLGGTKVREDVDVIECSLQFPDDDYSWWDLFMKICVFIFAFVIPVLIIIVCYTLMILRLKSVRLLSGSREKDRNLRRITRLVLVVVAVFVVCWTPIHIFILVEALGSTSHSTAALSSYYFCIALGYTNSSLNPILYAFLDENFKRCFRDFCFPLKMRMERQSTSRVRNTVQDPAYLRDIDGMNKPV
T7 sequence (P21554 whole entry): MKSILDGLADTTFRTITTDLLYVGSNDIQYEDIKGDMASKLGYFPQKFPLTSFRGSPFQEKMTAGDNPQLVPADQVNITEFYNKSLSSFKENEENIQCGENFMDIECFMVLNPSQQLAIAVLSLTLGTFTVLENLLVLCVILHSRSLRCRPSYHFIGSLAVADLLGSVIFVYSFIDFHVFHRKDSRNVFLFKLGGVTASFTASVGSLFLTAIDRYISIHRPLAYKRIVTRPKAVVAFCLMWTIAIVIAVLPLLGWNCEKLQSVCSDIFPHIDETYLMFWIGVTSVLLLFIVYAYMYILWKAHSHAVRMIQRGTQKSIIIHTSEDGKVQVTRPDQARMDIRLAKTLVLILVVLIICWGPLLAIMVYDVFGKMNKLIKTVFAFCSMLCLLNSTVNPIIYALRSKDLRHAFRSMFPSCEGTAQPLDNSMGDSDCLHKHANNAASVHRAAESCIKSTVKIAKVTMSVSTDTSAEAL
T5 sequence (P34972 whole entry): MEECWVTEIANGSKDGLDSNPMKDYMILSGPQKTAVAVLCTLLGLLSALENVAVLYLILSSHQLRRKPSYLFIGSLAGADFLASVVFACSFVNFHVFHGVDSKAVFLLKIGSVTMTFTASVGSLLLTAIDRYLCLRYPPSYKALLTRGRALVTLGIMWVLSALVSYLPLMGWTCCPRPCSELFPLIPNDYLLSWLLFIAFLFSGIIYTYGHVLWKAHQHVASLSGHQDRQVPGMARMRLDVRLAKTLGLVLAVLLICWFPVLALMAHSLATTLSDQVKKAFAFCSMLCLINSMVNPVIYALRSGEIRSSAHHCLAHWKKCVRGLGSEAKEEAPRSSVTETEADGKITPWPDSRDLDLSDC
T6 sequence (Q9HC97 whole entry): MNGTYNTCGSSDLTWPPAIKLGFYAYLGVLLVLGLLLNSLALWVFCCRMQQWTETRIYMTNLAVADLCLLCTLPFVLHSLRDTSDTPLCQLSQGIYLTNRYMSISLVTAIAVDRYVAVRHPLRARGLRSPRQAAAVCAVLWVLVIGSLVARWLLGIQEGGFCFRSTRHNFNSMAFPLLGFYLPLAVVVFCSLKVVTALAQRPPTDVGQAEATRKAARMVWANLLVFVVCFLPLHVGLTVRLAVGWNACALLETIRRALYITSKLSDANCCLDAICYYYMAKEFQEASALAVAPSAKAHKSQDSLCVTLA
Sequence of DNA damage-inducible transcript 3 protein (P35639 whole entry): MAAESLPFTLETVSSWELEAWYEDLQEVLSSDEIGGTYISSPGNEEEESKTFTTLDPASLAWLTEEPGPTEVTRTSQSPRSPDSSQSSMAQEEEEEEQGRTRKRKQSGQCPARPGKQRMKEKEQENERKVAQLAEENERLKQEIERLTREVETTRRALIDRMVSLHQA
Sequence of Type-1 angiotensin II receptor (P30556 whole entry, the tested form may be a part): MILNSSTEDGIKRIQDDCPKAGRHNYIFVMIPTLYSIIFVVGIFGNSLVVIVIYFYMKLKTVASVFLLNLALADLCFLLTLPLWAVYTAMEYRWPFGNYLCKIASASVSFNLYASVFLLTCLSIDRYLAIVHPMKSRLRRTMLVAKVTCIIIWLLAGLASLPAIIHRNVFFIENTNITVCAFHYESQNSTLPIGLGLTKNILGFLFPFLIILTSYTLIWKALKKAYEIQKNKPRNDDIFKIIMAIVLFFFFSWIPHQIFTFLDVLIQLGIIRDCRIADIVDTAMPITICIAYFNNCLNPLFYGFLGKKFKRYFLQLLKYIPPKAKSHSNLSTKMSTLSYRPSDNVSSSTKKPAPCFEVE
Sequence of G-protein coupled receptor 55 (Q9Y2T6 whole entry): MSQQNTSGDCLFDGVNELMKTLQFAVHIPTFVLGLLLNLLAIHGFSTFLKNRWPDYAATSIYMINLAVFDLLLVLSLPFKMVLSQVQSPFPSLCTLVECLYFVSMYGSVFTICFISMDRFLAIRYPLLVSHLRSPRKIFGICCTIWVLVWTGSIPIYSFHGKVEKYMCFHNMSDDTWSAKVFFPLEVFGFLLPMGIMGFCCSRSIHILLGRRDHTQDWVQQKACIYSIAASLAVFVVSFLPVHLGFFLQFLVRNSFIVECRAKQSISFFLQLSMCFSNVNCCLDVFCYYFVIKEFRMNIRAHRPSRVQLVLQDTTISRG
Sequence of Alkaline phosphatase, placental type (P05187 whole entry): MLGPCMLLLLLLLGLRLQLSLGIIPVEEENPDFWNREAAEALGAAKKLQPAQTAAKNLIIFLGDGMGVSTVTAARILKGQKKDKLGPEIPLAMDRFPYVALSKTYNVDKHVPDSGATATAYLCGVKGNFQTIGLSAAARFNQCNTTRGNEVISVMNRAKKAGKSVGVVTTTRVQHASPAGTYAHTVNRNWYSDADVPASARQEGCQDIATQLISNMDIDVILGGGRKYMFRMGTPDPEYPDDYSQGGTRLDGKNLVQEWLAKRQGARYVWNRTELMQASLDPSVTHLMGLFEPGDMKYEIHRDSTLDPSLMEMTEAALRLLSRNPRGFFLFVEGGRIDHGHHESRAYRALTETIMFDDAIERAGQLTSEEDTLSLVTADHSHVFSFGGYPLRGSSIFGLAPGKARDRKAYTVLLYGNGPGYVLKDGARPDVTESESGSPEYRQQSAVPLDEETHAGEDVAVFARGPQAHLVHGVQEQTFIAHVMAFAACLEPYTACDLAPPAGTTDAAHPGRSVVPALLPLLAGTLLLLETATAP
Sequence of Envelope glycoprotein gp160 (Q6QLK5 whole entry, the tested form may be a part): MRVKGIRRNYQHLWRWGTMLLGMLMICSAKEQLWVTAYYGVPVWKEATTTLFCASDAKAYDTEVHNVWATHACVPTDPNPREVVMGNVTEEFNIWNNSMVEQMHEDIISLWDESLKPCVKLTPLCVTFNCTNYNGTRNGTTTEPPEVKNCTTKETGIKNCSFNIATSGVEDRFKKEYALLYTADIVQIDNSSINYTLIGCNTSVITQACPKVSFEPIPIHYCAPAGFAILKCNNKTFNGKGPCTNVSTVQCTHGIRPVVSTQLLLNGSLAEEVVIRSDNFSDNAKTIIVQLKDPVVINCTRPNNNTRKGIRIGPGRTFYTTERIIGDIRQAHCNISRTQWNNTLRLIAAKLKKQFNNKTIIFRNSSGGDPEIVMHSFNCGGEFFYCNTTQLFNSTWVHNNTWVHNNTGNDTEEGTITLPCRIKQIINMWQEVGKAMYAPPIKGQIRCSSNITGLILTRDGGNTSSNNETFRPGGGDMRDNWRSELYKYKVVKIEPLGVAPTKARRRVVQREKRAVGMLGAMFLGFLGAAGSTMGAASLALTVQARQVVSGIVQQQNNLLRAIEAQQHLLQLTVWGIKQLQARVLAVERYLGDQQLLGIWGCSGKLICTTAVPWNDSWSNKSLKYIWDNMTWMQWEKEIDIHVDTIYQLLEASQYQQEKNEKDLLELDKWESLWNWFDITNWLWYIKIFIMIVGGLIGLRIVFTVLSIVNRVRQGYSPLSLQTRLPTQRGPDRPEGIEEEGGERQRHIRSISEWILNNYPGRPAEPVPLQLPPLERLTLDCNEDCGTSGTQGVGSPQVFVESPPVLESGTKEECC
Sequence of Mu-type opioid receptor (P35372 whole entry): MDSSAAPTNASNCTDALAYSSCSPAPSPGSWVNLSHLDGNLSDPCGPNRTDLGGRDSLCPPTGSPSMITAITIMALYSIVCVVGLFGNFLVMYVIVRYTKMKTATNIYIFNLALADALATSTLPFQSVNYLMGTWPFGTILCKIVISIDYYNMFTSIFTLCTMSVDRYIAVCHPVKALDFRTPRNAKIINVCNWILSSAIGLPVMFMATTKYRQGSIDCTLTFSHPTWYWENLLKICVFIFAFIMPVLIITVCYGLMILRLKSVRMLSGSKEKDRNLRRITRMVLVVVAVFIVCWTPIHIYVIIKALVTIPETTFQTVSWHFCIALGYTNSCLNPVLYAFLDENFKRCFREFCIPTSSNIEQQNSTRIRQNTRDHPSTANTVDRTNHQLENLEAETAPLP
Sequence of Delta-type opioid receptor (P41143 whole entry): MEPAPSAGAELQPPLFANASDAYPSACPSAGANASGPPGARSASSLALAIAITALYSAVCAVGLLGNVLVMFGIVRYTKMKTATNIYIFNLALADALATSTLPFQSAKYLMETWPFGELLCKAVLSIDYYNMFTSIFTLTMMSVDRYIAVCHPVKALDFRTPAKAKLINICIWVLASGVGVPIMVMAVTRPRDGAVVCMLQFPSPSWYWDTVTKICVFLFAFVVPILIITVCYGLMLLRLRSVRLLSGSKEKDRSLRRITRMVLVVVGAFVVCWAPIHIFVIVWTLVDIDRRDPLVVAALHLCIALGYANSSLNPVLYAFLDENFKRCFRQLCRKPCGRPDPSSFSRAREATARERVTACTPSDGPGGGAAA

Structure (SMILES): CCOC(=O)C(O)(c1ccc(NC(=S)NC(=O)c2ccc(Cl)cc2Cl)c(C)c1)C(F)(F)F (stereo not drawn)
EC50 [1]: 3.35 µM (active)

IC50 [2]: > 100 µM (inactive)
IC50 [3]: > 100 µM (inactive)
IC50 [4]: > 100 µM (inactive)
Structure (SMILES): O=C1Nc2ccc([N+](=O)[O-])cc2C12NNc1ccccc1O2 (stereo not drawn)

IC50 [5]: > 99 µM (inactive)
EC50 [6]: 4.22 µM (active)
Structure (SMILES): CCOc1ccc(NC(=O)c2cnn3c(O)cc(C4CCN(C(=O)OC(C)(C)C)CC4)nc23)cc1

EC50 [7]: > 100 µM (inactive)
Structure (SMILES): Cc1cc(C)n2nc3nc(N4CCCCC4)nc(-c4ccco4)c3c2n1

IC50 [8]: > 100 µM (inactive)
IC50 [9]: 0.665 µM (active)
Structure (SMILES): COc1cc(C(=S)NCc2ccccc2)ccc1O

EC50 [10]: > 32 µM (inactive)
IC50 [11]: > 32 µM (inactive)
EC50 [12]: > 32 µM (inactive)
EC50 [13]: > 32 µM (inactive)
IC50 [14]: > 32 µM (inactive)
IC50 [15]: > 32 µM (inactive)
EC50 [16]: > 32 µM (inactive)
Structure (SMILES): O=C(Nc1cccc(S(=O)(=O)N2CCOCC2)c1)c1cc2c(s1)CCCC2

IC50 [17]: 3.81 µM (active)
IC50 [18]: > 32 µM (inactive)
IC50 [19]: 2.42 µM (active)
IC50 [20]: > 32 µM (inactive)
IC50 [21]: 0.147 µM (active)
Structure (SMILES): O=C(Cn1c(=O)c2cccn2c2cc(Br)cnc21)NCCCN1CCN(c2ccc3c(c2)OCO3)CC1

Structure (SMILES): CCNC(=S)N/N=C/c1cc(Br)cc(Br)c1OC
Absolute IC50 (CHOP) [22]: 10 µM

IC50 [23]: > 50 µM (inactive)
Structure (SMILES): Cc1cccc(C)c1OCC(=O)N/N=C/c1cc2c(cc1[N+](=O)[O-])OCO2
